Reference: patent US4556715A, “Nicotinic acid derivatives” (Kyorin Pharmaceutical Co., Ltd., priority 1980, dated 1985)
Read-outs that look alike come from different tables or passages of the source.

Legend:
[1] = test system: serum and liver lipid levels in rats; test: Serum and liver lipid levels and relative liver weight in rats (100 mg/kg, 10 days); type: in vivo, Male rats of the Wistar strain; settings: for response vs control in vivo at 100 mg/kg: Rattus norvegicus, po; for response vs control in vivo at 100 mg/kg / Relative liver weight, relative to Control (100): in parentheses, Control = (100); for Liver lipid levels Ch / Liver lipid levels PL / Liver lipid levels TG / Relative liver weight / Serum lipid levels Ch / Serum lipid levels PL / Serum lipid levels TG: 100 mg/kg p.o. 10 days, Mean ± S.E. (n = 9)
Protocol: (2) Male rats of the Wistar strain weighing 160-180 g were fed a stock deit (CE-2, Japan CLEA, Tokyo) and water ad libitum. The present compounds and KCD-232 were suspended, respectively, in a 0.5% of CMC solution and give orally to rats once a day at a dose of 100 mg/kg b.w. for 10 days.
Control rats were received the 0.5% CMC solution alone. The diet was withdrawn immediately after the last administration of compounds. Animals were sacrificed by decapitation 4 hr after the last administration and blood was collected, clotted and centrifuged to obtain serum. The liver was excised quickly and weighed. Total lipids were extracted from the serum and liver, and the levels of Ch, TG and PL were determined colorimetrically.

[2] = test system: serum and liver lipid levels in normal rats; test: Effects on relative liver weight, serum and liver lipid levels in normal rats (100 mg/kg, 7 days); type: in vivo, Male Wistar strain rats
Protocol: (1) Effects on relative liver weight, serum and liver lipid levels in normal rats
Male Wistar strain rats, weighing 180-210 g were orally administered the present compounds (X=Cl, n1 =2, 3, 4 and n2 =1) and 4-(4-chlorobenzyloxy)benzyl nicotinate (KCD-232), being X=Cl, n1 =1, n2 =1, respectively, which were suspended in 0.5% carboxymethyl cellulose (CMC) solution once a day at a dose of 100 mg/kg b.w. for 7 days. The last administration was occured in rats fasted overnight. At 4 hr later blood was withdrawn from jugular vein, clotted and centrifuged to obtain serum. The liver was rapidly removed and weighed. Total lipids were extracted from the serum and liver, and cholesterol (Ch), triglycerides (TG) and phospholipids (PL) levels were determined.

[3] = 240 h, Table 2, read-out: Liver lipid levels PL, relative to Control (100)
[4] = Table 2, read-out: Liver lipid levels Ch, relative to Control (100)
[5] = Table 2, read-out: Liver lipid levels TG, relative to Control (100)
[6] = Table 2, read-out: Serum lipid levels Ch, relative to Control (100)
[7] = Table 2, read-out: Serum lipid levels PL, relative to Control (100)
[8] = Table 2, read-out: Serum lipid levels TG, relative to Control (100)
[9] = Table 1, 100 mg/kg p.o. 7 days, fasted overnight, mean ± S.E. (n = 6)
[10] = Table 1, in parentheses, Control = (100)

| Relative liver weight ([1]; Table 2) [g/100 g b.w.] | Relative liver weight, relative to Control (100) ([1]; Table 2) | SMILES | response vs control in vivo at 100 mg/kg [1, 3] [%] | response vs control in vivo at 100 mg/kg [1, 4] [%] | response vs control in vivo at 100 mg/kg [1, 5] [%] | response vs control in vivo at 100 mg/kg [1, 6] [%] | response vs control in vivo at 100 mg/kg [1, 7] [%] | response vs control in vivo at 100 mg/kg [1, 8] [%] | Liver lipid levels Ch ([1]; Table 2) [mg/g liver] | Liver lipid levels PL ([1]; Table 2) [mg/g liver] | Liver lipid levels TG ([1]; Table 2) [mg/g liver] | Serum lipid levels Ch ([1]; Table 2) [mg/dL] | Serum lipid levels PL ([1]; Table 2) [mg/dL] | Serum lipid levels TG ([1]; Table 2) [mg/dL] | further results |
| --- | --- | --- | --- | --- | --- | --- | --- | --- | --- | --- | --- | --- | --- | --- | --- |
| 3.98 ± 0.06 | 103 | O=C(OCc1ccc(OCCc2ccc(Cl)cc2)cc1)c1cccnc1 [n1=2, n2=1, 4-[2-(4-Chlorophenyl)ethoxy]benzyl nicotinate] | 102 | 96.7 | 87 | 76.7 | 74 | 44 | 2.94 ± 0.07 | 39.0 ± 0.7 | 5.50 ± 0.59 | 66.5 ± 2.2 | 110 ± 3.7 | 54.4 ± 5 | serum Ch, TG and PL (in words) ([2]; 100 mg/kg p.o. 7 days, compared with control): significantly reduced serum Ch, TG and PL; Liver lipid levels Ch [2, 9]: 3.78 ± 0.10 mg/g liver; Liver lipid levels PL [2, 9]: 37.2 ± 1.5 mg/g liver; Liver lipid levels TG [2, 9]: 11.49 ± 1.65 mg/g liver; Serum lipid levels Ch [2, 9]: 53.5 ± 2.2 mg/dL; Serum lipid levels PL [2, 9]: 69 ± 2.7 mg/dL; Serum lipid levels TG [2, 9]: 22.4 ± 4.3 mg/dL; Relative liver weight ([2]; Table 1, 100 mg/kg p.o. 7 days, mean ± S.E. (n = 6)): 3.17 ± 0.10 g/100 g b.w.; Liver lipid levels Ch, relative to Control (100) [2, 10]: 107; Liver lipid levels PL, relative to Control (100) [2, 10]: 101; Liver lipid levels TG, relative to Control (100) [2, 10]: 156; Relative liver weight, relative to Control (100) [2, 10]: 103; Serum lipid levels Ch, relative to Control (100) [2, 10]: 70; Serum lipid levels PL, relative to Control (100) [2, 10]: 68; Serum lipid levels TG, relative to Control (100) [2, 10]: 66 |
| 4.10 ± 0.06 | 106 | O=C(OCCc1ccc(OCc2ccc(Cl)cc2)cc1)c1cccnc1 [n1=1, n2=2, 4-(4-Chlorobenzyloxy)phenethyl nicotinate] | 105 | 78.3 | 82.9 | 78.1 | 76.8 | 44.2 | 2.38 ± 0.10 | 39.9 ± 0.8 | 5.24 ± 0.36 | 67.7 ± 3.3 | 114 ± 4.7 | 54.7 ± 6.5 | response vs control in vivo at 100 mg/kg ([1]; 240 h, Table 3, read-out: Liver lipid levels PL, relative to Control (100)): 104%; response vs control in vivo at 100 mg/kg ([1]; Table 3, read-out: Liver lipid levels Ch, relative to Control (100)): 106%; response vs control in vivo at 100 mg/kg ([1]; Table 3, read-out: Liver lipid levels TG, relative to Control (100)): 79%; response vs control in vivo at 100 mg/kg ([1]; Table 3, read-out: Serum lipid levels Ch, relative to Control (100)): 70.9%; response vs control in vivo at 100 mg/kg ([1]; Table 3, read-out: Serum lipid levels PL, relative to Control (100)): 64.7%; response vs control in vivo at 100 mg/kg ([1]; Table 3, read-out: Serum lipid levels TG, relative to Control (100)): 27.3%; Liver lipid levels Ch ([1]; Table 3): 2.46 ± 0.14 mg/g liver; Liver lipid levels PL ([1]; Table 3): 37.5 ± 0.4 mg/g liver; Relative liver weight ([1]; Table 3): 3.80 ± 0.07 g/100 g b.w.; Serum lipid levels Ch ([1]; Table 3): 69.2 ± 3.9 mg/dL; Serum lipid levels PL ([1]; Table 3): 101 ± 4.5 mg/dL; Serum lipid levels TG ([1]; Table 3): 34.2 ± 2.9 mg/dL; Relative liver weight, relative to Control (100) ([1]; Table 3): 100 |

| SMILES | Relative liver weight ([1]; Table 2) [g/100 g b.w.] | Relative liver weight, relative to Control (100) ([1]; Table 2) | response vs control in vivo at 100 mg/kg [1, 3] [%] | response vs control in vivo at 100 mg/kg [1, 4] [%] | response vs control in vivo at 100 mg/kg [1, 5] [%] | response vs control in vivo at 100 mg/kg [1, 6] [%] | response vs control in vivo at 100 mg/kg [1, 7] [%] | response vs control in vivo at 100 mg/kg [1, 8] [%] | Liver lipid levels Ch ([1]; Table 2) [mg/g liver] | Liver lipid levels PL ([1]; Table 2) [mg/g liver] | Liver lipid levels TG ([1]; Table 2) [mg/g liver] | Serum lipid levels Ch ([1]; Table 2) [mg/dL] | Serum lipid levels PL ([1]; Table 2) [mg/dL] | Serum lipid levels TG ([1]; Table 2) [mg/dL] | further results |
| --- | --- | --- | --- | --- | --- | --- | --- | --- | --- | --- | --- | --- | --- | --- | --- |
| O=C(OCCCCc1ccc(OCCCCc2ccc(Cl)cc2)cc1)c1cccnc1 [n1=4, n2=4, 4-{4-[4-(4-Chlorophenyl)butoxy]phenyl}butyl nicotinate] | 3.90 ± 0.06 | 101 | 107 | 79.3 | 112 | 70.8 | 69.2 | 31.5 | 2.41 ± 0.08 | 40.9 ± 0.4 | 7.11 ± 0.53 | 61.4 ± 3.2 | 103 ± 4.4 | 39 ± 3.2 |  |
